Results as given in US10660874B2, “Ecteinamycin, compositions and uses thereof” (Wisconsin Alumni Research Foundation, priority 2014, dated 2020).
Values after ≈ are worked out from the molar mass of the structure shown.

How the values were obtained:
[1] = system: C. difficile (ATCC BAA-1870); test: MIC, anaerobic dilution antimicrobial susceptibility test; format: cell-based; settings: Clostridioides difficile
Experimental: (§1) Ecteinamycin was tested for antibacterial activity against C. difficile (ATCC BAA-1870), MRSA (ATCC #33591), MSSA (ATCC #29213), E. coli (ATCC #25922), P. aeruginosa (ATCC #27853), and VRE (ATCC), and MICs were determined using a dilution antimicrobial susceptibility test for aerobic (MRSA, MSSA, E. coli, P. aeruginosa, and VRE) and anaerobic (C. difficile) bacteria. Ecteinamycin was dissolved in DMSO, serially diluted to 10 concentrations (0.0313-32 μg/mL), and tested in a 96-well plate. […] Ecteinamycin and vancomycin were tested in triplicate. Six untreated media controls were included on each plate. For MRSA, MSSA, E. coli, and P. aeruginosa, the plates were incubated at 33° C. for 18 h. For C. difficile, the plate was incubated at 36° C. for 48 h anaerobically and then read visually using a mirror apparatus. All manipulations to the plate were done inside the anaerobe chamber. The MIC was determined as the lowest concentration that inhibited visible growth.

[2] = system: P. aeruginosa (ATCC #27853); test: MIC, dilution antimicrobial susceptibility test; format: cell-based; settings: Pseudomonas aeruginosa, ATCC27853, 33° C., 18 h
Experimental: as §1

E. coli (ATCC #25922) = test: MIC, dilution antimicrobial susceptibility test; format: cell-based; settings: Escherichia coli, ATCC25922, 33° C., 18 h
Experimental: as §1

VRE (ATCC) = test: MIC, dilution antimicrobial susceptibility test; format: cell-based, Vancomycin-resistant Enterococcus; settings: Enterococcus
Experimental: as §1

MSSA (ATCC #29213) = test: MIC, dilution antimicrobial susceptibility test; format: cell-based, Methicillin-sensitive Staphylococcus aureus; settings: Methicillin-sensitive Staphylococcus aureus (MSSA); 33° C., 18 h; read-out: MIC
Experimental: as §1

[3] = system: S. cerevisiae deletion mutants; test: Chemical genomic analysis in yeast deletion mutants; format: cell-based, Saccharomyces cerevisiae; settings: 250 μg/mL; for Fold Change in abundance relative to solvent control: 48 h
Experimental: A chemical genomic analysis of ecteinamycin was performed as described previously (Fling, S.-Y.; Sofiyev, V.; Schneiderman, J.; Hirschfeld, A. F.; Victor, R. E.; Woods, K.; Piotrowski, J. S.; Deshpande, R.; Li, S. C.; de Voogd, N. J.; Myers, C. L.; Boone, C.; Andersen, R. J.; Turvey, S. E. ACS Chem. Biol. 2014, 9, 247-257.). The optimal inhibitory concentration of ecteinamycin for chemical genomic profiling (70-80% growth versus solvent control in YP-Glucose media after 24 h of growth) was determined. A concentration of 250 μg/mL inhibited growth within this range. Two hundred μL cultures of a pooled, genome wide collection of S. cerevisiae deletion mutants with 250 μg/mL ecteinamycin or a DMSO control were grown in triplicate for 48 h at 30° C. The genomic DNA was extracted using the Epicentre MasterPure™ Yeast DNA purification kit. Mutant-specific molecular barcodes were amplified with specially designed multiplex primers containing adapters for Illumina sequencing. The barcodes were sequenced using an Illumina HiSeq2500 Rapid Run platform. Three replicates of each condition (ecteinamycin vs. DMSO) were sequenced. The barcode counts for each yeast deletion mutant in the presence of ecteinamycin were normalized against the DMSO control conditions to generate a Z-score to define sensitivity or resistance of individual strains (the chemical genomic profile). In addition, differential abundance analysis was calculated for each mutant's response to the ecteinamycin versus DMSO using edgeR. The mutants with very low counts (<5) were filtered out before using the edgeR package (version 3.4.2) to calculate an adjusted P-value and log fold change for each mutant. A Bonferroni corrected hypergeometric distribution test was used to search for significant enrichment of GO terms among the top sensitive and resistant deletion mutants with a P-value less than 0.0001.^42 The chemical genomic profile of ecteinamycin was compared against existing chemical genomic datasets by Pearson correlation.
In parallel, chemical genomic profiling with the yeast, Saccharomyces cerevisiae, was used to investigate the mechanism of action of ecteinamycin. This method has been used for determining the mechanism of action and molecular target for many bioactive compounds, including natural products. Ecteinamcyin was screened against over four thousand deletion mutant yeast strains, genomic DNA was extracted, and mutant-specific DNA barcodes were amplified and sequenced by Illumina sequencing. Ecteinamycin sensitive and resistant mutants were determined by quantification of DNA-barcodes, providing a chemical genomic profile, which was used to evaluate the mechanism of action.

E. coli deletion mutants = test: Chemical genomic profiling in E. coli deletion mutants; format: cell-based, Escherichia coli
Experimental: Chemical genomic profiling was also performed in Escherichia coli to further investigate the mechanism of action of ecteinamycin. Similar to the chemical genomic profiling with yeast, ecteinamcyin was screened against over 6,000 deletion mutant E. coli strains, genomic DNA was extracted, and mutant-specific DNA barcodes were amplified and sequenced by Illumina sequencing. Ecteinamycin sensitive and resistant mutants were determined by quantification of DNA-barcodes in order to provide a chemical genomic profile to aid in evaluating the mechanism of action (Table 7).

C=C1OC(=O)C(C(=O)CC2OC(C(C)C(O)C(CC)C(=O)C(C)(O)C3CCC(CC)(C4CCC(O)(C(C)OC)C(C)O4)O3)C(C)CC2C)=C1O (centres unmarked) [ecteinamycin]
MIC ([1]; ATCCBAA1870): ≤ 0.031 µg/mL
MIC ([1]; ATCCBAA1870, 36° C., 48 h anaerobically): ≤ 0.0313 µg/mL
MIC [2]: 8 µg/mL (≈ 11.3 µM)
MIC (E. coli (ATCC #25922)): 16 µg/mL (≈ 22.6 µM)
MIC (VRE (ATCC)): 0.25 µg/mL (≈ 0.353 µM)
MIC (MSSA (ATCC #29213)): 0.125 µg/mL (≈ 0.176 µM)
growth versus solvent control ([3]; YP-Glucose media, 24 h): 70-80%
Fold Change in abundance relative to solvent control ([3]; APL4 deletion mutant (sensitive)): 0.076
Fold Change in abundance relative to solvent control ([3]; APM2 deletion mutant (sensitive)): 0.037
Fold Change in abundance relative to solvent control ([3]; DRS2 deletion mutant (sensitive)): 0.040
Fold Change in abundance relative to solvent control ([3]; EGT2 deletion mutant (resistant)): 3.564
Fold Change in abundance relative to solvent control ([3]; HAL9 deletion mutant (resistant)): 3.379
Fold Change in abundance relative to solvent control ([3]; IRC25 deletion mutant (resistant)): 3.732
Fold Change in abundance relative to solvent control ([3]; MRH1 deletion mutant (resistant)): 4.129
Fold Change in abundance relative to solvent control ([3]; MSS11 deletion mutant (resistant)): 2.585
Fold Change in abundance relative to solvent control ([3]; PAR32 deletion mutant (sensitive)): 0.017
Fold Change in abundance relative to solvent control ([3]; PHO2 deletion mutant (resistant)): 5.974
Fold Change in abundance relative to solvent control ([3]; PHO84 deletion mutant (resistant)): 2.986
Fold Change in abundance relative to solvent control ([3]; PRE9 deletion mutant (resistant)): 5.995
Fold Change in abundance relative to solvent control ([3]; TRP4 deletion mutant (sensitive)): 0.136
Fold Change in abundance relative to solvent control ([3]; UME6 deletion mutant (resistant)): 10.979
Fold Change in abundance relative to solvent control ([3]; VPS38 deletion mutant (sensitive)): 0.087
Fold Change in abundance relative to solvent control ([3]; YMR010W deletion mutant (sensitive)): 0.122
Fold Change in abundance relative to solvent control ([3]; YOL162W deletion mutant (sensitive)): 0.145
Fold Change in abundance relative to solvent control ([3]; YPL205C deletion mutant (resistant)): 4.953
Fold Change in abundance relative to solvent control ([3]; YPR089W deletion mutant (sensitive)): 0.110
Fold Change in abundance relative to solvent control ([3]; YPT7 deletion mutant (sensitive)): 0.016
Fold Change in abundance relative to solvent control (E. coli deletion mutants; acrA deletion mutant): 0.087
Fold Change in abundance relative to solvent control (E. coli deletion mutants; acrB deletion mutant): 0.189
Fold Change in abundance relative to solvent control (E. coli deletion mutants; atpA deletion mutant): 0.280
Fold Change in abundance relative to solvent control (E. coli deletion mutants; atpF deletion mutant): 0.207
Fold Change in abundance relative to solvent control (E. coli deletion mutants; csgE deletion mutant): 0.369
Fold Change in abundance relative to solvent control (E. coli deletion mutants; dksA deletion mutant): 0.187
Fold Change in abundance relative to solvent control (E. coli deletion mutants; fis deletion mutant): 0.416
Fold Change in abundance relative to solvent control (E. coli deletion mutants; hupA deletion mutant): 0.518
Fold Change in abundance relative to solvent control (E. coli deletion mutants; kdpD deletion mutant): 0.374
Fold Change in abundance relative to solvent control (E. coli deletion mutants; ldcA deletion mutant): 0.341
Fold Change in abundance relative to solvent control (E. coli deletion mutants; rpoS deletion mutant): 0.350
Fold Change in abundance relative to solvent control (E. coli deletion mutants; sapB deletion mutant): 0.241
Fold Change in abundance relative to solvent control (E. coli deletion mutants; sapD deletion mutant): 0.197
Fold Change in abundance relative to solvent control (E. coli deletion mutants; trkA deletion mutant): 0.145
Fold Change in abundance relative to solvent control (E. coli deletion mutants; ycdR deletion mutant): 0.287
Fold Change in abundance relative to solvent control (E. coli deletion mutants; yhjK deletion mutant): 0.485
Fold Change in abundance relative to solvent control (E. coli deletion mutants; yraP deletion mutant): 0.365
